This is an account of results in patent US20080171788A1, “Medicament For Irritable Bowel Syndrome” (priority 2005, published 2008).

The test system of test [1] is male Wister rats. As to the kind of experiment: Rat restraint stress-induced defecation model. Type of test: in vivo. Conditions: for evacuation suppressing action: 10 mg/kg p.o., used independently, 10 mg/kg; for number of excreted stools, comparison with the non-administration group: each of the 1, 3 and 10 mg/kg administration groups, N=10. The method, then:
IBS-treating effect of the medicine of the invention was evaluated using a test method in which the amount of evacuations is measured by applying a restriction stress to rats (cf. J. Pharmacol. Exp. Ther. (1992) 261, 297-303). […] Each drug to be tested was administered to male Wister rats (body weight 250 to 320 g, 10 animals for each group), and a restraint stress was loaded 30 minutes thereafter. A restraint stress cage (KN-468, 265 mm in width×95 mm in length×200 mm in height, mfd. by Natsume Seisakusho, Tokyo) was used for the restraint stress loading, and the number of excreted stool was counted 1 hour after the stress loading. […] The control means the number of stools at the time of no stress loading, namely the reference value.

For test [2], the target named is α1 receptor. The experiment in a line: Affinity for other receptors: α1. Type of test: binding.
Test [3] addresses 5-HT2B receptor (Homo sapiens, UniProt P41595). Conditions: in comparison with 5-HT1A, 5-HT1B, 5-HT2A, 5-HT2C, 5-HT3, 5-HT6, 5-HT7, α1, M1 and D2 receptors; cited from earlier work.

Entries after “also recorded” stand apart in the source; their conditions may differ. A value given as a limit tells only on which side of the number the result lay.

5-HT2B receptor, sequence (P41595 whole entry): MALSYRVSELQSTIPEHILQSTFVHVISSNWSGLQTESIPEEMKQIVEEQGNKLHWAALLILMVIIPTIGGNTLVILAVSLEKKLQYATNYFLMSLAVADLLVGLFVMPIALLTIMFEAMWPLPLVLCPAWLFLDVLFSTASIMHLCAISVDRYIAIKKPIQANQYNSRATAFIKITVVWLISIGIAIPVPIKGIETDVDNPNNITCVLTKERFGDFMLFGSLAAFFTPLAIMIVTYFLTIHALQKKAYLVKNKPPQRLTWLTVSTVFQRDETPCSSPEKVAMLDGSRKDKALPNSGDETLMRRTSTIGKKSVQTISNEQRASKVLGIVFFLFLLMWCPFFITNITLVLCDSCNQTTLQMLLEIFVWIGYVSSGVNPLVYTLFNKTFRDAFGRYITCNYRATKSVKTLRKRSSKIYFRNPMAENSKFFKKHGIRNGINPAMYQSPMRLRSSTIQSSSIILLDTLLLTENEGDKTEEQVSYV

As for `Cl.NC(N)=NC(=O)c1ccc2c(c1)C1(CCCO1)c1ccccc1-2` (single isomer, unassigned) [Production Example 60b], the evacuation suppression action result in test [1] (3 mg/kg (p.o.)) is on record as “suppression action similar to the level of Production Example 3”.

On to `Cl.NC(N)=NC(=O)c1ccc2c(c1)C(O)c1ccccc1-2` (centres unmarked) [Production Example 3, N-(diaminomethylene)-9-hydroxy-9H-fluorene-2-carboxamide hydrochloride], for which the evacuation suppression action result in test [1] (3 mg/kg intraperitoneally (i.p.)) is “significant suppression action”. In test [2], the IC50 was ≥ 1000 nM.

For `CC(C)c1cc(-c2ccc(F)c3ccccc23)nc(N)n1` [RS-127445, 2-amino-4-(4-fluoronaphtho-1-yl)-6-isopropylpyrimidine], in test [1], the evacuation suppressing action result is given as “did not show the evacuation suppressing action; also recorded: do not show the reaction” and the “number of excreted stools, comparison with the non-administration group” value is given as “Significant difference was not found”. Moreover, the “selectivity for 5-HT2B receptor” value in test [3] is recorded as ≥ 1,000 times.

`CC1CCN(CC[C@H]2CCCN2S(=O)(=O)c2cccc(O)c2)CC1` [SB-269970, (R)-3-(2-(2-(4-methylpiperidine-1-yl)ethyl)pyrrolidine-1-sulfonyl)phenol]: in test [1], the evacuation suppressing action result is “did not show the evacuation suppressing action; also recorded: do not show the reaction” and the “number of excreted stools, comparison with the non-administration group” value is recorded as “Significant difference was not found”.

Usually IC50 stands for the concentration needed to halve the response being measured. Higher therefore signals a need for much substance.
